# Columns and labels:
# [1] = Photostability after 30 mins assessed by fluorescence intensity; assay type: ADME; conditions: 0.5 h
# [2] = Chemical stability assessed as hydrolysis at pH more than 10; assay type: physicochemical
# [3] = Chemical stability assessed as hydrolysis at pH below 1; assay type: physicochemical
# [4] = Chemical stability assessed as hydrolysis at pH 3 to 9 after 1.5 hrs; assay type: physicochemical; conditions: buffer, pH 3, 1.5 h
Compound,Fluorescence intensity [1] [%],Activity [2],Activity [3],Activity [4]
CCCN1/C(=C/C=C2\CCC/C(=C\C=C3\N(CCC)c4ccccc4C3(C)C)C2=O)C(C)(C)c2ccccc21,< 15,,,
CCCN1/C(=C/C=C2\CCCC(/C=C/C3=[N+](CCC)c4ccccc4C3(C)C)=C2OC(C)=O)C(C)(C)c2ccccc21.[I-],,Active,Active,Not Active

# Source: ChEMBL document CHEMBL1149690, “Membrane permeable esterase-activated fluorescent imaging probe” (Bioorg Med Chem Lett, 2007)
